Patent US7491794B2, “Macrocyclic compounds as inhibitors of viral replication” (Intermune, Inc., priority 2003, dated 2009)
pEC50, pIC50: −log10 of the molar value.

Key:
NS3-NS4A protease = molecular target: T1, NS3-NS4A protease (Hepatitis C virus genotype 1a, UniProt P27958); test: NS3-NS4A protease assay (NS3 inhibition assay, RETS1 substrate), Section B; assay type: biochemical; conditions: read-out: NS3-NS4A IC50
T1 construct: Recombinant E. coli or Baculovirus full-length NS3 was diluted to 3.33 μM with assay buffer; made in house; host or cells: E. coli or baculovirus (BV) system
T1 sequence (P27958 1027-1657): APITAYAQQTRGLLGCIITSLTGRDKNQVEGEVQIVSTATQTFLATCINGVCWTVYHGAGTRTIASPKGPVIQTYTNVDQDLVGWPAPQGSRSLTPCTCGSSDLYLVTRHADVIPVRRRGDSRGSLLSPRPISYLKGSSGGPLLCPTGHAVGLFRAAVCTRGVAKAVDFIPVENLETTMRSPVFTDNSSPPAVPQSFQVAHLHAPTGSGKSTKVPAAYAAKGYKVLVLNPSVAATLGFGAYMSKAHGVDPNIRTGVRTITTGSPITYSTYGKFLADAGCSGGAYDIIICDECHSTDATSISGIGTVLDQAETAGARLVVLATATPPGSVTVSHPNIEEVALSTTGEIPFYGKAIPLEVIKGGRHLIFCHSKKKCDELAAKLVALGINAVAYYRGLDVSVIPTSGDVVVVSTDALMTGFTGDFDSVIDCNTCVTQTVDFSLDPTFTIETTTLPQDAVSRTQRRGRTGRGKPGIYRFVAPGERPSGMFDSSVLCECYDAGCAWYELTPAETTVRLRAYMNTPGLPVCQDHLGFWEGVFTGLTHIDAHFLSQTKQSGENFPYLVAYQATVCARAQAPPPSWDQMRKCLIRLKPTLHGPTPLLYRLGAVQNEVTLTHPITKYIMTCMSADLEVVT
How it was run: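 Kinetic fluorescence read (335 nm excitation, 495 nm emission, 30 min) of RETS1 cleavage by NS3/NS4A-2 complex, 2 nM E. coli or 3 nM baculovirus NS3, after 10 min room-temperature compound pre-incubation. Four-parameter-fit IC50s converted to Ki by Cheng–Prusoff, Ki=IC50/(1+[S]/Km).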

[1] = tested on: HCV sub-genomic replicon, GS4.3; test: Quantitation by ELISA of NPTII in the HCV sub-genomic replicon, GS4.3, Section B; assay type: cell-based; conditions: Hepatitis C virus; GS4.3 cells, 72 h incubation; read-out: Replicon EC50
How it was run: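 NPTII marker protein in lysates was quantified by ELISA read at 450 nm after 72 h inhibitor exposure (3-fold series, final DMSO 1%, G418-free medium) of HuH-7 cells stably harbouring the subgenomic HCV replicon. Values relative to DMSO-treated controls; 4-parameter curves gave EC50.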

Compound: O=C(N[C@H]1CCCCCC=C[C@@H]2C[C@@]2(C(=O)NS(=O)(=O)C2CC2)NC(=O)[C@@H]2C[C@@H](OC(=O)N3Cc4ccccc4C3)CN2C1=O)OC1CCCC1 [AR00333831, (1S,4R,6S,14S,18R)-1,3-Dihydro-isoindole-2-carboxylic acid 14-cyclopentyloxycarbonylamino-4-cyclopropanesulfonylaminocarbonyl-2,15-dioxo-3,16-diaza-tricyclo[14.3.0.0^4,6]nonadec-7-en-18-yl ester]
- pIC50 (NS3-NS4A protease): > 7.00
- pEC50 [1]: > 7.00

Compound: COCC1c2ccc(OC)cc2CCN1C(=O)O[C@@H]1C[C@H]2C(=O)N[C@]3(C(=O)O)C[C@H]3/C=C\CCCCC[C@H](NC(=O)OC(C)(C)C)C(=O)N2C1 (stereo partly drawn) [AR00333842, (1S,4R,6S,14S,18R)-14-tert-Butoxycarbonylamino-18-(6-methoxy-1-methoxymethyl-3,4-dihydro-1H-isoquinoline-2-carbonyloxy)-2,15-dioxo-3,16-diaza-tricyclo[14.3.0.0^4,6]nonadec-7-ene-4-carboxylic acid]
- pIC50 (NS3-NS4A protease): > 6.00
- pEC50 [1]: > 5.00

Compound: CC(C)(C)OC(=O)N[C@H]1CCCCC/C=C\[C@@H]2C[C@@]2(C(=O)NS(=O)(=O)c2ccc(Cl)s2)NC(=O)[C@@H]2C[C@@H](OC(=O)N3Cc4ccccc4C3)CN2C1=O [AR00334188, (1S,4R,6S,14S,18R)-1,3-Dihydro-isoindole-2-carboxylic acid 14-tert-butoxycarbonylamino-4-(5-chloro-thiophene-2-sulfonylaminocarbonyl)-2,15-dioxo-3,16-diaza-tricyclo[14.3.0.0^4,6]nonadec-7-en-18-yl ester]
- pIC50 (NS3-NS4A protease): > 7.00
- pEC50 [1]: > 6.00

Compound: CC(C)(C)OC(=O)N[C@H]1CCCCC/C=C\[C@@H]2C[C@@]2(C(=O)NS(=O)(=O)C2CC2)NC(=O)[C@@H]2C[C@@H](OC(=O)N3Cc4cccc(F)c4C3)CN2C1=O [AR00334191, (1S,4R,6S,14S,18R)-4-Fluoro-1,3-dihydro-isoindole-2-carboxylic acid 14-tert-butoxycarbonylamino-4-cyclopropanesulfonylaminocarbonyl-2,15-dioxo-3,16-diaza-tricyclo[14.3.0.0^4,6]nonadec-7-en-18-yl ester]
- pIC50 (NS3-NS4A protease): > 7.00
- pEC50 [1]: > 7.00

Compound: O=C(N[C@H]1CCCCC/C=C\[C@@H]2C[C@@]2(C(=O)NS(=O)(=O)C2CC2)NC(=O)[C@@H]2C[C@@H](OC(=O)N3Cc4ccc(Cl)cc4C3)CN2C1=O)OC1CCCC1 [AR00334218, (1S,4R,6S,14S,18R)-5-Chloro-1,3-dihydro-isoindole-2-carboxylic acid 14-cyclopentyloxycarbonylamino-4-cyclopropanesulfonylaminocarbonyl-2,15-dioxo-3,16-diaza-tricyclo[14.3.0.0^4,6]nonadec-7-en-18-yl ester]
- pIC50 (NS3-NS4A protease): > 7.00
- pEC50 [1]: > 7.00

Compound: O=C(N[C@H]1CCCCC/C=C\[C@@H]2C[C@@]2(C(=O)NS(=O)(=O)C2CC2)NC(=O)[C@@H]2C[C@@H](OC(=O)N3Cc4ccc(Cl)cc4C3)CN2C1=O)O[C@H]1CCOC1 [AR00334220, (1S,4R,6S,14S,18R)-5-Chloro-1,3-dihydro-isoindole-2-carboxylic acid 4-cyclopropanesulfonylaminocarbonyl-2,15-dioxo-14-(tetrahydro-furan-3-yloxycarbonylamino)-3,16-diaza-tricyclo[14.3.0.0^4,6]nonadec-7-en-18-yl ester]
- pIC50 (NS3-NS4A protease): > 7.00
- pEC50 [1]: > 6.00

Compound: O=C(N[C@H]1CCCCC/C=C\[C@@H]2C[C@@]2(C(=O)NS(=O)(=O)C2CC2)NC(=O)[C@@H]2C[C@@H](OC(=O)N3Cc4ccc(Cl)cc4C3)CN2C1=O)OCCF [AR00334222, (1S,4R,6S,14S,18R)-5-Chloro-1,3-dihydro-isoindole-2-carboxylic acid 4-cyclopropanesulfonylaminocarbonyl-14-(2-fluoro-ethoxycarbonylamino)-2,15-dioxo-3,16-diaza-tricyclo[14.3.0.0^4,6]nonadec-7-en-18-yl ester]
- pIC50 (NS3-NS4A protease): > 7.00
- pEC50 [1]: > 7.00

Compound: CC(C)(C)CC(=O)N[C@H]1CCCCC/C=C\[C@@H]2C[C@@]2(C(=O)NS(=O)(=O)C2CC2)NC(=O)[C@@H]2C[C@@H](OC(=O)N3Cc4ccc(Cl)cc4C3)CN2C1=O [AR00334225, (1S,4R,6S,14S,18R)-5-Chloro-1,3-dihydro-isoindole-2-carboxylic acid 4-cyclopropanesulfonylaminocarbonyl-14-(3,3-dimethyl-butyrylamino)-2,15-dioxo-3,16-diaza-tricyclo[14.3.0.0^4,6]nonadec-7-en-18-yl ester]
- pIC50 (NS3-NS4A protease): > 7.00
- pEC50 [1]: > 6.00

Compound: O=C(CC1CCCC1)N[C@H]1CCCCC/C=C\[C@@H]2C[C@@]2(C(=O)NS(=O)(=O)C2CC2)NC(=O)[C@@H]2C[C@@H](OC(=O)N3Cc4ccc(Cl)cc4C3)CN2C1=O [AR00334226, (1S,4R,6S,14S,18R)-5-Chloro-1,3-dihydro-isoindole-2-carboxylic acid 14-(2-cyclopentyl-acetylamino)-4-cyclopropanesulfonylaminocarbonyl-2,15-dioxo-3,16-diaza-tricyclo[14.3.0.0^4,6]nonadec-7-en-18-yl ester]
- pIC50 (NS3-NS4A protease): > 7.00
- pEC50 [1]: > 7.00

Compound: CC(=O)Nc1nnc(S(=O)(=O)NC(=O)[C@@]23C[C@H]2/C=C\CCCCC[C@H](NC(=O)OC(C)(C)C)C(=O)N2C[C@H](OC(=O)N4Cc5ccccc5C4)C[C@H]2C(=O)N3)s1 [AR00334247, (1S,4R,6S,14S,18R)-1,3-Dihydro-isoindole-2-carboxylic acid 4-(5-acetylamino-[1,3,4]thiadiazole-2-sulfonylaminocarbonyl)-14-tert-butoxycarbonylamino-2,15-dioxo-3,16-diaza-tricyclo[14.3.0.0^4,6]nonadec-7-en-18-yl ester]
- pIC50 (NS3-NS4A protease): > 7.00
- pEC50 [1]: > 6.00

Compound: CC(C)(C)OC(=O)N[C@H]1CCCCC/C=C\[C@@H]2C[C@@]2(C(=O)NS(=O)(=O)c2ccc(C#N)cc2)NC(=O)[C@@H]2C[C@@H](OC(=O)N3Cc4ccccc4C3)CN2C1=O [AR00334248, (1S,4R,6S,14S,18R)-1,3-Dihydro-isoindole-2-carboxylic acid 14-tert-butoxycarbonylamino-4-(4-cyano-benzenesulfonylaminocarbonyl)-2,15-dioxo-3,16-diaza-tricyclo[14.3.0.0^4,6]nonadec-7-en-18-yl ester]
- pIC50 (NS3-NS4A protease): > 7.00
- pEC50 [1]: > 6.00

Compound: CC(C)(C)OC(=O)N[C@H]1CCCCC/C=C\[C@@H]2C[C@@]2(C(=O)NS(=O)(=O)c2ccc([N+](=O)[O-])cc2)NC(=O)[C@@H]2C[C@@H](OC(=O)N3Cc4ccccc4C3)CN2C1=O [AR00334249, (1S,4R,6S,14S,18R)-1,3-Dihydro-isoindole-2-carboxylic acid 14-tert-butoxycarbonylamino-4-(4-nitro-benzenesulfonylaminocarbonyl)-2,15-dioxo-3,16-diaza-tricyclo[14.3.0.0^4,6]nonadec-7-en-18-yl ester]
- pIC50 (NS3-NS4A protease): > 7.00
- pEC50 [1]: > 6.00

Compound: CC(C)(C)OC(=O)N[C@H]1CCCCC/C=C\[C@@H]2C[C@@]2(C(=O)NS(=O)(=O)c2ccc(Cl)cc2)NC(=O)[C@@H]2C[C@@H](OC(=O)N3Cc4ccccc4C3)CN2C1=O [AR00334250, (1S,4R,6S,14S,18R)-1,3-Dihydro-isoindole-2-carboxylic acid 14-tert-butoxycarbonylamino-4-(4-chloro-benzenesulfonylaminocarbonyl)-2,15-dioxo-3,16-diaza-tricyclo[14.3.0.0^4,6]nonadec-7-en-18-yl ester]
- pIC50 (NS3-NS4A protease): > 7.00
- pEC50 [1]: > 7.00

Compound: CC(C)(C)OC(=O)N[C@H]1CCCCC/C=C\[C@@H]2C[C@@]2(C(=O)NS(=O)(=O)C2CC2)NC(=O)[C@@H]2C[C@@H](OC(=O)N3Cc4ccc(N)cc4C3)CN2C1=O [AR00334286, (1S,4R,6S,14S,18R)-5-Amino-1,3-dihydro-isoindole-2-carboxylic acid 14-tert-butoxycarbonylamino-4-cyclopropanesulfonylaminocarbonyl-2,15-dioxo-3,16-diaza-tricyclo[14.3.0.0^4,6]nonadec-7-en-18-yl ester]
- pIC50 (NS3-NS4A protease): > 7.00
- pEC50 [1]: > 7.00

Compound: COc1ccc2c(c1)CN(C(=O)O[C@@H]1C[C@H]3C(=O)N[C@]4(C(=O)NS(=O)(=O)C5CC5)C[C@H]4/C=C\CCCCC[C@H](NC(=O)OC(C)(C)C)C(=O)N3C1)C2 [AR00334314, (1S,4R,6S,14S,18R)-5-Methoxy-1,3-dihydro-isoindole-2-carboxylic acid 14-tert-butoxycarbonylamino-4-cyclopropanesulfonylaminocarbonyl-2,15-dioxo-3,16-diaza-tricyclo[14.3.0.0^4,6]nonadec-7-en-18-yl ester]
- pIC50 (NS3-NS4A protease): > 7.00
- pEC50 [1]: > 7.00

Compound: COCC1c2ccc(OC)cc2CCN1C(=O)O[C@@H]1CC2C(=O)N[C@]3(C(=O)NS(=O)(=O)C4CC4)C[C@H]3/C=C\CCCCC[C@H](NC(=O)OC(C)(C)C)C(=O)N2C1 (stereo partly drawn) [AR00334339, (1S,4R,6S,14S,18R)-6-Methoxy-1-methoxymethyl-3,4-dihydro-1H-isoquinoline-2-carboxylic acid 14-tert-butoxycarbonylamino-4-cyclopropanesulfonylaminocarbonyl-2,15-dioxo-3,16-diaza-tricyclo[14.3.0.0^4,6]nonadec-7-en-18-yl ester]
- pIC50 (NS3-NS4A protease): > 7.00
- pEC50 [1]: > 7.00

Compound: COc1ccc(S(=O)(=O)NC(=O)[C@@]23C[C@H]2/C=C\CCCCC[C@H](NC(=O)OC(C)(C)C)C(=O)N2C[C@H](OC(=O)N4Cc5ccccc5C4)C[C@H]2C(=O)N3)cc1 [AR00334341, (1S,4R,6S,14S,18R)-1,3-Dihydro-isoindole-2-carboxylic acid 14-tert-butoxycarbonylamino-4-(4-methoxy-benzenesulfonylaminocarbonyl)-2,15-dioxo-3,16-diaza-tricyclo[14.3.0.0^4,6]nonadec-7-en-18-yl ester]
- pIC50 (NS3-NS4A protease): > 7.00
- pEC50 [1]: > 7.00
